Results on one molecule are retold here after ChEMBL document CHEMBL4417621, “Methods to identify tas2r modulators” (2013).

Format in all cases: functional, cell-based
Assay [1] addresses T1, Taste receptor type 2 member 1 (Homo sapiens) (UniProt Q9NYW7).
T1 sequence (whole entry): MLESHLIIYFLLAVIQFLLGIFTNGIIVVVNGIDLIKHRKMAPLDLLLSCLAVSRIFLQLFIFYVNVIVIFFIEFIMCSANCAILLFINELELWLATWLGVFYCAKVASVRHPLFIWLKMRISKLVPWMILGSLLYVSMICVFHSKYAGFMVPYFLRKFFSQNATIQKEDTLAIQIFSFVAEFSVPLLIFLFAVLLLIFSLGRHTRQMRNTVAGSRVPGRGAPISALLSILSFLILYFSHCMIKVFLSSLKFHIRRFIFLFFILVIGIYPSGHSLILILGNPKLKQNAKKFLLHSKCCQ
Nature of the assay: Activation of full-length human TAS2R1 expressed in HEK293T/Galpha16-gustducin 44 cells assessed as effect on calcium flux by measuring deltaF/F0 ratio at 1.5625 mM by Fluo-4 dye based FLIPR assay. On the technique in general: Calcium flux is commonly read through the fluorescence of an indicator in the cells.

For assay [2], the target named is T2, Taste receptor type 2 member 31 (Homo sapiens) (UniProt P59538).
T2 sequence (whole entry): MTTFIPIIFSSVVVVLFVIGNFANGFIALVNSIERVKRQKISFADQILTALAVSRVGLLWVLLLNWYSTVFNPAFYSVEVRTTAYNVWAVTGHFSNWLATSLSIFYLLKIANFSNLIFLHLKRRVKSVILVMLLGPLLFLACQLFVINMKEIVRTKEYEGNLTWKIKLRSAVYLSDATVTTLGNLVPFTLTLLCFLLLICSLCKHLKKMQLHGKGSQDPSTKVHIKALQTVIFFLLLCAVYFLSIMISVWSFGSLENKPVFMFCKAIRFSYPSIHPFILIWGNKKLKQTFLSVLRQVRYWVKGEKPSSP
Nature of the assay: Activation of full-length human TAS2R44 expressed in HEK293T/Galpha16-gustducin 44 cells assessed as effect on calcium flux by measuring deltaF/F0 ratio at 50 mM by Fluo-4 dye based FLIPR assay (reference value: […] +/ - 0.016).

The target in assay [3] is T1, Taste receptor type 2 member 1 (Homo sapiens). Nature of the assay: Activation of full-length human TAS2R1 expressed in HEK293T/Galpha16-gustducin 44 cells assessed as effect on calcium flux by measuring deltaF/F0 ratio at 0.3906 mM by Fluo-4 dye based FLIPR assay.
The target in assay [4] is T3, Taste receptor type 2 member 10 (Homo sapiens) (UniProt Q9NYW0).
T3 sequence (whole entry): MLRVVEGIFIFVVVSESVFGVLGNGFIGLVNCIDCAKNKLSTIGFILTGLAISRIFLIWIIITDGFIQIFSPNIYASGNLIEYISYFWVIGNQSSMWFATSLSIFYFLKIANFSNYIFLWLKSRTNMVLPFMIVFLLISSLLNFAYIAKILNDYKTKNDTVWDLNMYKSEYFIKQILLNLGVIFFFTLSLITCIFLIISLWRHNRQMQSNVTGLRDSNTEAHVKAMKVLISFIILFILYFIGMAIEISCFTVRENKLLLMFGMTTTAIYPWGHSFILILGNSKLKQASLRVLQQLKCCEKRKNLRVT
As to the kind of experiment: Activation of full-length human TAS2R10 expressed in HEK293T/Galpha16-gustducin 44 cells assessed as effect on calcium flux by measuring deltaF/F0 ratio at 3.125 mM by Fluo-4 dye based FLIPR assay.

Assay [5] has as its target T4, Taste receptor type 2 member 46 (Homo sapiens) (UniProt P59540).
T4 sequence (whole entry): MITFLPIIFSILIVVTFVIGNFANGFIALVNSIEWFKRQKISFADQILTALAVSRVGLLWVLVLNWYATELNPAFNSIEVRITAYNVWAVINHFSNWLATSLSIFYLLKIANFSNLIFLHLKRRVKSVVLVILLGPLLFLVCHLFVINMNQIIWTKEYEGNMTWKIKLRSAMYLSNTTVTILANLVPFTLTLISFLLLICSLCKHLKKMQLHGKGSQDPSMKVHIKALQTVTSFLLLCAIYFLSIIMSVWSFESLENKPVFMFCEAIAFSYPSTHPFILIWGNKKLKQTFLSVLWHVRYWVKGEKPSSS
Nature of the assay: Activation of full-length human TAS2R46 expressed in HEK293T/Galpha16-gustducin 44 cells assessed as effect on calcium flux by measuring deltaF/F0 ratio at 25 mM by Fluo-4 dye based FLIPR assay.

Assay [6] has as its target T2, Taste receptor type 2 member 31 (Homo sapiens). Nature of the assay: Activation of full-length human TAS2R44 expressed in HEK293T/Galpha16-gustducin 44 cells assessed as effect on calcium flux by measuring deltaF/F0 ratio at 0.7813 mM by Fluo-4 dye based FLIPR assay (reference value: […] +/ - 0.002).
Assay [7] concerns the target T4, Taste receptor type 2 member 46 (Homo sapiens). Nature of the assay: Activation of full-length human TAS2R46 expressed in HEK293T/Galpha16-gustducin 44 cells assessed as effect on calcium flux by measuring deltaF/F0 ratio at 100 mM by Fluo-4 dye based FLIPR assay.
Assay [8] deals with T5, Taste receptor type 2 member 31 (Homo sapiens, UniProt P59538).
T5 sequence (P59538 whole entry): T2 sequence (whole entry)
As to the kind of experiment: Agonist activity at full-length human TAS2R44 expressed in HEK293T/Galpha16-gustducin 44 cells assessed as effect on calcium flux by measuring deltaF/F0 ratio by Fluo-4 dye based FLIPR assay.

Assay [9] concerns the target T2, Taste receptor type 2 member 31 (Homo sapiens). As to the kind of experiment: Activation of full-length human TAS2R44 expressed in HEK293T/Galpha16-gustducin 44 cells assessed as effect on calcium flux by measuring deltaF/F0 ratio at 100 mM by Fluo-4 dye based FLIPR assay (reference value: 0.021 +/ - 0.012).

Consider `OC[C@H]1O[C@H](O[C@]2(CCl)O[C@H](CCl)[C@@H](O)[C@@H]2O)[C@H](O)[C@@H](O)[C@H]1Cl` [SUCRALOSE], for which the Ratio is 0.047 in [1]; 0.256 in assay [2]; 0.052 in assay [3]; 0.053 in assay [4]; 0.106 in [5]; 0.025 in assay [6]. For the same molecule, the Ratio worked out at 0.258 in assay [7] and 0.26 in assay [9]. The EC50 (in general, the midpoint of the concentration-response curve) in assay [8] stood at 16.7 mM.
